Laboratory results taken from patent publication US20150164895A1, “DETERMINING SENSITIVITY OF CELLS TO B-RAF INHIBITOR TREATMENT BY DETECTING KRAS MUTATION AND RTK EXPRESSION LEVELS” (GENENTECH, INC., priority 2009, published 2015).

Legend:
[1] = tested on: Venus-C-RAF / CFP-K-RAS in HEK293T cells; test: C-RAF plasma membrane translocation, live cell confocal imaging; assay type: cell-based; design: dose or concentration left out as unconfirmed
Description: Aliquots of the membrane and cytosolic fractions were immunoblotted with the indicated antibodies. (B) HEK293T cells were transiently transfected with Venus-C-RAF (green), CFP-K-RAS (red) and mCherry-H2B (blue).

[2] = tested on: pERK in BRAF V600E cells expressing EGFR; test: pERK MSD assay, basal and EGF-stimulated; assay type: cell-based; settings: serum starved, -EGF or +EGF
Description: (A) Table of genotype and EGFR levels among lines tested. (B) Measurement of basal and stimulated pERK levels: cells were treated with […] compound in serum free media for 1 hour. For stimulation 20 ng/ml EGF was added for 5 min before cells were lysed. Lysates were transferred to an MSD plate where phospho- and total ERK levels were measured. (C) pERK IC50 data are plotted for the two Raf inhibitors (CHR-265, 1-methyl-5-[[2-[5-(trifluoromethyl)-1H-imidazol-2-yl]-4-pyridinyl]oxy]-N-[4-(trifluoromethyl)phenyl]-1H-Benzimidazol-2-amine and GDC-0879) under basal and EGF-stimulated conditions.
FIG. 29 summarizes certain RAF inhibitor (GDC-0879, PLX-4720 and “Raf inh a” which is 2,6-difluoro-N-(3-methoxy-1H-pyrazolo[3,4-b]pyridin-5-yl)-3-(propylsulfonamido)benzamide) potencies for blocking cellular pERK induction in response to EGF stimulation.

[3] = tested on: ERK1/2 phosphorylation in BRAF^V600E primary human xenograft tumors; test: Pharmacodynamic ERK1/2 phosphorylation immunoblot in primary human xenograft tumors; assay type: in vivo, mice; settings: 100 mg/kg, 1 or 8 h following the last dose (days 21-24)
Description: In time course pharmacodynamic studies, mice were treated with 100 mg/kg GDC-0879 and scarified at 1 or 8 h following the last dose (days 21-24). Immunoblots of phosphorylated and total ERK1/2 are shown. […] Total ERK1/2 expression was examined in all samples as a loading control.

[4] = tested on: pMEK levels in non-B-Raf^V600E lines; test: pMEK levels / Raf/MEK/ERK pathway induction by Raf inhibitors; assay type: cell-based
[5] = tested on: C-RAF in A375 (B-RAFV600E) cells transfected with KRASG12D; test: C-RAF immunoprecipitation: kinase activity and B-RAF heterodimerization; assay type: cell-based; design: dose or concentration left out as unconfirmed; settings: A375 transfected with mutant KRASG12D; dosed at 0.1, 1
Description: FIGS. 20A, B, C and D depict the importance of the role of active Ras plays in C-RAF activation and phospho-MEK induction by RAF inhibitors. (A) A375 (B-RAFV600E) cells were treated with GDC-0879 or PLX4720 for 1 hour and lysed in hypotonic buffer for membrane fractionation. Both membrane (P100) and cytosolic (S100) fractions were immunoblotted with the indicated antibodies. (B) MeWo cells were transiently transfected with KRASWT or KRASSI7N, treated with GDC-0879 or PLX4720 (at […]) for 1 hour and fractionated into membrane (P100) and cytosolic (S100) fractions. Aliquots of the membrane and cytosolic fractions were immunoblotted with anti-phospho- and anti-total MEK antibodies. (C) RAS-GTP levels were measured from lysates of MeWo (RAS/RAFWT), A375 (B-RAFV600E) and H2122 (KRASMT) cells with a Ras-GTP ELISA protocol using immobilized C-RAF-RBD as bait for capturing RAS-GTP. Relative luminescent units represent RAS detection of an anti-RAS antibody bound to the RBD. RAS-GTP H2122>>Mewo>A375. […] C-RAF was immunoprecipitated from control and inhibitor-treated cells and assayed for protein activity and B-RAF heterodimerization. Total C-RAF levels shown by WB in the immunoprecipitate indicate loading for each lane.

[6] = tested on: patient-derived melanoma and non-small cell lung cancer tumor models; test: Primary human tumor xenograft models, time to tumor doubling; assay type: in vivo, mice; settings: 100 mg/kg daily
Description: FIG. 8A depicts the duration and extent of BRAF pathway inhibition determines B-Raf inhibitor, GDC-0879 efficacy in primary human tumor xenograft models. A Kaplan-Meier plot showing time to tumor doubling for patient-derived melanoma and non-small cell lung cancer tumor models treated daily with 100 mg/kg GDC-0879 or vehicle. Genotypes for BRAF, N-ras and K-ras are indicated.
The Ras GTPase family controls numerous downstream signaling cascades in response to signals that regulate cellular processes including proliferation and survival. While Ras is one of the most prevalent targets for gain-of-function mutations in human tumors, questions remain regarding how the Ras effector pathway functions in mutant K-ras-driven tumorigenesis. Since an important function of K-ras involves B-Raf activation within the canonical MAPK signaling pathway, we initiated a study to determine B-Raf's role in the context of mutant K-ras-driven tumor promotion and maintenance. […] See, FIG. 8A, showing time to tumor doubling.

OCCn1cc(-c2ccc3c(c2)CC/C3=N\O)c(-c2ccncc2)n1 [GDC-0879, 2-{4-[(1E)-1-(hydroxyimino)-2,3-dihydro-1H-inden-5-yl]-3-(pyridine-4-yl)-1H-pyrazol-1-yl}ethan-1-ol]
Venus-tagged C-RAF membrane translocation [1]: co-localizes with CFP-KRAS on the plasma membrane
blocking wildtype RAF signaling / selectivity (pERK induction in response to EGF) [2]: can more efficiently block wildtype RAF signaling
ERK1/2 phosphorylation in tumors [3]: down-regulated ERK1/2 phosphorylation
effect on pMEK levels ([4]; after serum stimulation): Inhibitory effects of GDC-0879 predominate
effect on pMEK levels / c-Raf ([4]; basal conditions): bell-shaped curve
B-RAF:C-RAF heterodimers and C-RAF kinase activation [5]: induce B-RAF:C-RAF heterodimers and C-RAF kinase activation
time to tumor doubling / tumor growth ([6]; K-ras-mutant non-small cell lung tumors such as LXFA 1041 and LXFA 983): significantly accelerated growth
time to tumor doubling / tumor progression ([6]; MEXF 989, MEXF 276, and MEXF 355 tumors): statistically significant (P<0.05) delay in tumor progression
